# Key:
# primary macrophages = assay: H2O2-induced apoptosis of macrophages (Annexin V); format: cell-based, mouse; conditions: 250 μM H2O2, 24 h, 500 μM compound; compared to vehicle or 4-HOBA
# Protocol: (6A and 6B) Mouse aortic endothelial cells (6A) or primary macrophages (6B) were incubated for 24 h with 250 μM H2O2 alone or with either 4-HOBA or 2-HOBA (500 μM). Apoptotic cells were then detected by Annexin V staining and flow cytometry. (6C to 6H) The mRNA levels of IL-1β, IL-6, and TNF-α were analyzed by real time PCR in the peritoneal macrophages incubated for 24 h with either oxidized LDL (6C-6E) or 250 μM H2O2 (6F-6H) alone or with either 4-HOBA or 2-HOBA (500 μM). (6A to 6H) Data are presented as mean±SEM from three independent experiments, ***p<0.001, One-way ANOVA with Bonferroni's post hoc test.
# Peritoneal macrophages were isolated from mice 72 hours post injection of 3% thioglycollate and maintained in DMEM plus 10% fetal bovine serum (FBS, Gibco) as previously described^30. Human aortic endothelial cells (HAECs) were obtained from Lonza and maintained in endothelial cell basal medium-2 plus 1% FBS and essential growth factors (Lonza).
# Cell apoptosis was induced as indicated and detected by fluorescent labeled Annexin V staining and quantitated by either Flow Cytometry (BD 5 LSRII) or counting Annexin V positive cells in images captured under a fluorescent microscope. The apoptotic cells in atherosclerotic lesions were measured by TUNEL staining of cross-sections of atherosclerotic proximal aortas as previously described^30. […]
# MDA-LDL = assay: MDA adducts in isolated LDL by ELISA; format: in vivo, mouse; conditions: Ldlr−/− mice
# Protocol: (§1) FIG. 21A-D show the effects of 2-HOBA on plasma and LDL MDA adducts in hypercholesterolemic Ldlr^−/− mice. (20A) The MDA content in plasma from Ldlr^−/− mice consuming a Western diet for 16 weeks and treated with 2-HOBA, 4-HOBA, or vehicle was measured by TBARS Assay(*p<0.05, **p<0.01). (20B) The levels of MDA adducts were measured from LDL isolated from the Ldlr^−/− mice by ELISA. N=10 per group, ***p<0.001. (20C) LDL was isolated from control and FH subjects (n=6) pre and post LDL apheresis and the MDA adduct content was measured by ELISA. (20D) LDL was isolated from 2-HOBA, 4-HOBA, or vehicle treated hypercholesterolemic Ldlr^−/− mice. WT peritoneal macrophages were incubated for 24 hrs with the LDL and the cellular cholesterol content was measured as described in methods. (20A-D) One-way ANOVA with Bonferroni's post hoc test).
# The study was approved by the Vanderbilt University Institutional Review Board (IRB), and all participants gave their written informed consent. The human blood samples from patients with severe FH, who were undergoing LDL apheresis, and healthy controls were obtained using an IRB approved protocol. HDL and LDL were prepared from serum by Lipoprotein Purification Kits (Cell BioLabs, Inc.). Sandwich ELISA was used to measure plasma MDA-LDL and MDA-HDL levels following the manufacturer's instructions (Cell BioLabs, Inc.). Briefly, isolated LDL or HDL samples and MDA-Lipoprotein standards were added onto anti-MDA coated plates, and, after blocking, the samples were incubated with biotinylated anti-apoB or anti-ApoAI primary antibody. The samples were then incubated for 1 h with streptavidin-enzyme conjugate and 15 min with substrate solution. After stopping the reaction, the O.D. was measured at 450 nm wavelength. MDA-ApoAI was detected in mouse plasma by immunoprecipitation of ApoAI and western blotting. […] Proteins were visualized and quantitated by Odyssey 3.0 Quantification software (LI-COR).
# [1] = test system: WT peritoneal macrophages; assay: Cholesterol enrichment of macrophages by LDL from treated mice; format: cell-based, mouse; conditions: LDL from 2-HOBA versus 4-HOBA or vehicle treated Ldlr−/− mice, 24 hrs
# Protocol: as §1
# MDA was prepared immediately before use by rapid acid hydrolysis of maloncarbonyl bis-(dimethylacetal) as described^31. Briefly, 20 μL of 1 M HCl was added to 200 μL of maloncarbonyl bis-(dimethylacetal), and the mixture was incubated for 45 min at room temperature. The MDA concentration was determined by absorbance at 245 nm, using the coefficient factor 13, 700 M^−1 cm^−1. […] The LDL samples were incubated for 24 h with macrophages and the cholesterol content of the cells was measured using an enzymatic cholesterol assay as described^61.
smiles,measurement,setting,value
"NCc1ccccc1O [2-HOBA, 2-hydroxybenzylamine]","number of apoptotic cells, macrophage cultures",primary macrophages,markedly decreased
same,MDA content in LDL,MDA-LDL,reduced
same,reduction of MDA adduct content in isolated LDL (ELISA),MDA-LDL; compared to 4-HOBA,54%
same,reduction of MDA adduct content in isolated LDL (ELISA),MDA-LDL; compared to vehicle,57%
same,ability of LDL from treated mice to enrich cells with cholesterol,[1],not different
